Experimental data as given in patent publication US3955959A, “Herbicide for use in transplanted rice” (priority 1974, dated 1976).
Several values for one entry are separate records, joined by “and”; a condition that tells them apart may be missing. Identical values can stand only once.

Assays:
[1] = tested on: Monochoria vaginalis; experiment: Example 2 field test, weed control, Chia Yi, Taiwan; assay type: in vivo; conditions: obs. 63 DAT
Description: (§5) In the field tests of the herbicide of this invention with transplanted rice, the rice seedlings were grown in conventional manner, by seeding the rice in a typical seedbed of sandy loam to clay soil of the country wherein the test was conducted. For laboratory and greenhouse work the seedlings were obtained by seeding rice in a mixture of soil, e.g., Ray silt loam, and peat in wood flats. For purposes of testing the herbicides on younger rice seedlings (infant or Dapog) the rice was usually allowed to grow for 6-15 days before lifting for transplanting. Older (ordinary) rice plants were usually grown for a period of about 2-3 weeks, or as much as about 7 weeks before lifting. Since the period of growth is dependent upon climatic conditions, a better measure of when to transplant the rice seedling is the leaf stage of growth; for infant or Dapog rice the seedling is lifted at the 1.5-2 leaf stage of growth, and for ordinary seedlings at the 2.5-5 leaf stage. The seedlings were then transplanted to the test plots for evaluation of the herbicide for injury against weed species present with the transplanted rice. The herbicides were then applied to the growth medium of the weeds and transplant rice, either preemergent or postemergent with respect to the weeds and postemergent with respect to the transplanted rice. […] Application rates given in the tables refer to the amount of active ingredient used.
(§6) Rice seedlings (ordinary) of Tainan No. 5 variety (japonica) were transplanted at 19 days of growth. Granular formulations of Herbicides A and B were applied at the 1 leaf stage of grass weed (4 DAT) and 2.5 leaf stage of grass weed (10 DAT).

[2] = tested on: Sa (Sagittaria aginashi); experiment: Other tests, perennial control; assay type: in vivo
[3] = tested on: Alisma canaliculatum, Aneilema japonica, Monochoria vaginalis, Commelina communis; experiment: Weeds effectively treated to date: monocotyledonous broadleaf weeds; assay type: in vivo
[4] = tested on: Broadleaf: Mv, Sz (Monochoria vaginalis, Sphenoclea zeylanica); experiment: Example 3 field test on Dapog rice, weed control, Munoz, Philippines; assay type: in vivo, Monochoria vaginalis and Sphenoclea zeylanica; conditions: obs. 42 DAT
Text: Treatments were replicated four times.

[5] = tested on: Cyperus difformis; experiment: Example 2 field test, weed control, Chia Yi, Taiwan; assay type: in vivo; conditions: obs. 63 DAT
Description: as §5, §6

[6] = tested on: Echinochloa crusgalli and Monochoria vaginalis; experiment: Example 2 field test, overall; assay type: in vivo
Description: as §6

[7] = tested on: Ek (Eleocharis kuroguwai); experiment: Other tests, perennial control; assay type: in vivo
[8] = tested on: transplanted rice; experiment: Crop safety to transplanted rice, general; assay type: in vivo
[9] = tested on: Ea (Eleocharis acicularis); experiment: Example 5 field test, weed control, JAAPR, Japan; assay type: in vivo
[10] = tested on: Ec (Echinochloa crusgalli); experiment: Example 5 field test, weed control, JAAPR, Japan; assay type: in vivo
[11] = tested on: Mv (Monochoria vaginalis); experiment: Example 5 field test, weed control, JAAPR, Japan; assay type: in vivo
[12] = tested on: Dapog transplanted rice; experiment: Example 3 field test, rice yield; assay type: in vivo; conditions: in vivo
Description: (§1) In the tests described in the tables below, the herbicides were formulated and used in granular form in conventional manner. […] The commercial herbicide used was a granular product having 5% active ingredient.
(§2) In the field tests of the herbicide of this invention with transplanted rice, the rice seedlings were grown in conventional manner, by seeding the rice in a typical seedbed of sandy loam to clay soil of the country wherein the test was conducted. For laboratory and greenhouse work the seedlings were obtained by seeding rice in a mixture of soil, e.g., Ray silt loam, and peat in wood flats. For purposes of testing the herbicides on younger rice seedlings (infant or Dapog) the rice was usually allowed to grow for 6-15 days before lifting for transplanting. Older (ordinary) rice plants were usually grown for a period of about 2-3 weeks, or as much as about 7 weeks before lifting. Since the period of growth is dependent upon climatic conditions, a better measure of when to transplant the rice seedling is the leaf stage of growth; for infant or Dapog rice the seedling is lifted at the 1.5-2 leaf stage of growth, and for ordinary seedlings at the 2.5-5 leaf stage. The seedlings were then transplanted to the test plots for evaluation of the herbicide for injury against weed species present with the transplanted rice. The herbicides were then applied to the growth medium of the weeds and transplant rice, either preemergent or postemergent with respect to the weeds and postemergent with respect to the transplanted rice. Application times are designated in the tables as "DAT", meaning "days after transplant". Application rates given in the tables refer to the amount of active ingredient used.
Eleven (11) day-old Dapog seedlings were transplanted and treated at 5 DAT and 14 DAT with Herbicides A and B. The plots were overseeded with Echinochloa crusgalli seeds at 2 kgs/ha prior to transplanting. Treatments were replicated four times.

[13] = tested on: Ann. Cyp (Cyperus spp); experiment: Example 5 field test, weed control, JAAPR, Japan
Description: as §1, §2
(§3) The rice seedlings were grown to the 1.7 leaf stage for infant seedlings and to the 5.5 leaf stage for ordinary seedlings. Two days after puddling the soil in which the seedlings were to be transplanted, both infant and ordinary seedlings were transplanted into plots 8.5 m^2.
(§4) The weed symbol "Obw" represents "other broadleaf weeds" of unspecified identity. Results presented in Table 5 represent the average of 2 replications.

[14] = tested on: transplanted rice (ordinary and infant seedlings); experiment: Example 5 field test, rice injury
Description: as §1, §2, §3, §4

[15] = tested on: Perennials Ek and Sa (Eleocharis kuroguwai, Sagittaria aginashi); experiment: Example 1 field test, perennial weed control, Iri, Korea; assay type: in vivo; conditions: for % Weed Control (Perennials Ek and Sa): weed weight at 63 DAT
Text: In the field test 48 day-old seedlings (Watanabe variety) were transplanted to plots 2.5 × 6 m. seeded with the weed seeds indicated in Table 1. At 5 and 10 DAT periods, the herbicides were applied to the plants (now at the 1.2 and 2.0 leaf stage, respectively, of grass weed) at the indicated rate in kilograms per hectare (kg/ha). The weed control and rice injury results for 3 replications are reported in percentages as of the indicated times of observation. The percentages given in the "Perennials" column are based on the weight of the weeds at 63 DAT, i.e., 42 gms/3.6 m^2 for the weedy check.

[16] = 1.0 kg/ha, 15 DAT, infant seedlings
[17] = 1.0 kg/ha, 15 DAT, ordinary seedlings
[18] = .25 kg/ha, 2 DAT, infant seedlings
[19] = .25 kg/ha, 2 DAT, ordinary seedlings
[20] = .5 kg/ha, 7 DAT, infant seedlings
[21] = .5 kg/ha, 7 DAT, ordinary seedlings

SMILES: CCCCOCN(C(=O)CCl)c1c(C)cccc1C(C)(C)C [Herbicide A, n-(butoxymethyl)-6'-tert-butyl-2-chloro-o-acetotoluidide]
- % Weed Control (Monochoria Vaginalis) ([1]; 4 DAT, 1.0 kg/ha): 100%
- % Weed Control (Monochoria Vaginalis) ([1]; 4 DAT, 2.0 kg/ha): 100%
- % Weed Control (Monochoria Vaginalis) ([1]; 4 DAT, .25 kg/ha): 80%
- % Weed Control (Monochoria Vaginalis) ([1]; 4 DAT, .5 kg/ha): 99%
- % Weed Control (Monochoria Vaginalis) ([1]; 10 DAT, 1.0 kg/ha): 99%
- % Weed Control (Monochoria Vaginalis) ([1]; 10 DAT, 2.0 kg/ha): 99%
- % Weed Control (Monochoria Vaginalis) ([1]; 10 DAT, .25 kg/ha): 35%
- % Weed Control (Monochoria Vaginalis) ([1]; 10 DAT, .5 kg/ha): 87%
- activity against Sa [2]: generally weak
- effectively treated monocotyledonous broadleaf weeds [3]: effectively treated
- % Weed control, Broadleaf (Mv,Sz) ([4]; 5 DAT, 1.0 kg/ha): 100%
- % Weed control, Broadleaf (Mv,Sz) ([4]; 5 DAT, 2.0 kg/ha): 100%
- % Weed control, Broadleaf (Mv,Sz) ([4]; 5 DAT, .25 kg/ha): 100%
- % Weed control, Broadleaf (Mv,Sz) ([4]; 5 DAT, .5 kg/ha): 100%
- % Weed control, Broadleaf (Mv,Sz) ([4]; 14 DAT, 1.0 kg/ha): 60%
- % Weed control, Broadleaf (Mv,Sz) ([4]; 14 DAT, 2.0 kg/ha): 60%
- % Weed control, Broadleaf (Mv,Sz) ([4]; 14 DAT, .25 kg/ha): 0%
- % Weed control, Broadleaf (Mv,Sz) ([4]; 14 DAT, .5 kg/ha): 60%
- % Weed Control (Cyperus difformis) ([5]; 4 DAT, 1.0 kg/ha): 100%
- % Weed Control (Cyperus difformis) ([5]; 4 DAT, 2.0 kg/ha): 100%
- % Weed Control (Cyperus difformis) ([5]; 4 DAT, .25 kg/ha): 100%
- % Weed Control (Cyperus difformis) ([5]; 4 DAT, .5 kg/ha): 100%
- % Weed Control (Cyperus difformis) ([5]; 10 DAT, 1.0 kg/ha): 100%
- % Weed Control (Cyperus difformis) ([5]; 10 DAT, 2.0 kg/ha): 100%
- % Weed Control (Cyperus difformis) ([5]; 10 DAT, .25 kg/ha): 100%
- % Weed Control (Cyperus difformis) ([5]; 10 DAT, .5 kg/ha): 100%
- period of application vs Herbicide B ([6]; Example 2): could be applied over a longer period of time
- fold more active than Herbicide B ([6]; control of Echinochloa crusgalli and Monochoria vaginalis): 3-6 fold
- control of perennial Ek [7]: fair to good
- safe application timing ([8]; 2 days before transplant (Table 6) to 14 DAT (Table 4)): can safely be applied preemergence
- crop injury, transplanted rice ([8]; recommended use rates): negligible crop injury
- % Weed Control (Ea) [9, 16]: 89%
- % Weed Control (Ea) [9, 17]: 90%
- % Weed Control (Ea) [9, 18]: 87%
- % Weed Control (Ea) [9, 19]: 79%
- % Weed Control (Ea) [9, 20]: 89%
- % Weed Control (Ea) [9, 21]: 98%
- % Weed Control (Ec) [10, 16]: 100%
- % Weed Control (Ec) [10, 17]: 100%
- % Weed Control (Ec) [10, 18]: 100%
- % Weed Control (Ec) [10, 19]: 100%
- % Weed Control (Ec) [10, 20]: 100%
- % Weed Control (Ec) [10, 21]: 100%
- control of Ec in words ([10]; both plots, all rates): controlled
- % Weed Control (Mv) [11, 16]: 67%
- % Weed Control (Mv) [11, 17]: 62%
- % Weed Control (Mv) [11, 18]: 80%
- % Weed Control (Mv) [11, 19]: 80%
- % Weed Control (Mv) [11, 20]: 60%
- % Weed Control (Mv) [11, 21]: 62%
- Yield (% of H.W. Check) [12]: 182% and 177% and 139% and 104% and 93% and 98% and 113%
- rice yield vs hand weeded check [12]: statistically similar to the hand weeded check
- yield in words [12]: outstanding
- control of Ann. Cyp in words ([13]; 0.25 kg/ha both plots, 1.0 kg/ha ordinary): controlled completely
- % Weed Control (Ann. Cyp) [13, 16]: 100%
- % Weed Control (Ann. Cyp) [13, 17]: 100%
- control of Ann. Cyp in words ([13]; 1.0 kg/ha, infant seedling plots): controlled
- % Weed Control (Ann. Cyp) [13, 18]: 100%
- % Weed Control (Ann. Cyp) [13, 19]: 100%
- % Weed Control (Ann. Cyp) [13, 20]: 75%
- % Weed Control (Ann. Cyp) [13, 21]: 80%
- Injury [14, 16]: 0
- Injury [14, 17]: 0
- Injury [14, 18]: 0
- Injury [14, 19]: 0
- Injury [14, 20]: 0
- Injury [14, 21]: 0
- injury to seedlings in words ([14]; ordinary and infant seedlings): Injury to neither ordinary nor infant seedlings occurred
- % Weed Control (Perennials Ek and Sa) ([15]; 5 DAT, 1.0 kg/ha): 68%
- % Weed Control (Perennials Ek and Sa) ([15]; 5 DAT, 2.0 kg/ha): 100%
- % Weed Control (Perennials Ek and Sa) ([15]; 5 DAT, .25 kg/ha): 0%
- % Weed Control (Perennials Ek and Sa) ([15]; 5 DAT, .5 kg/ha): 55%
- % Weed Control (Perennials Ek and Sa) ([15]; 10 DAT, 1.0 kg/ha): 0%
- % Weed Control (Perennials Ek and Sa) ([15]; 10 DAT, 2.0 kg/ha): 0%
- % Weed Control (Perennials Ek and Sa) ([15]; 10 DAT, .25 kg/ha): 0%
- % Weed Control (Perennials Ek and Sa) ([15]; 10 DAT, .5 kg/ha): 2%
- perennial control ([15]; at 14 DAT and at rates less than 2 kgs/ha applied 5 DAT): less than adequate
